Experimental findings from US12091425B2 (AMGEN INC., priority 2016, dated 2024) are described below.

For orientation: IC50 means the concentration at which inhibition is half-maximal.

Test [1] has as its target T1, Mcl-1/Bim interaction, recombinant human Mcl-1 (171-327) (Homo sapiens, UniProt Q07820).
T1 construct: made in house
Nature of the test: Cell free Mcl-1: Bim Affinity Assay (Mcl-1 HTRF). Type of test: binding. In short, it runs like this:
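Compounds were mixed with the protein and a biotinylated Bim peptide spanning human residues 51-76. Plates were left overnight, then TR-FRET signal was measured. A four-parameter sigmoidal model applied to duplicate competition data gave IC50.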
On the technique in general: Time-resolved FRET reads energy transfer from a long-lived donor to a nearby acceptor.

The subject of test [2] is OPM-2 human multiple myeloma cell line. Nature of the test: Cell Viability Assay (OPM-2 10 FBS). Type of test: cell-based. As to conditions: OPM-2 cells, 16 h, CellTiter-Glo. In short, it runs like this: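 ATP-based luminescence (CellTiter-Glo) measured after a 16 h compound treatment of OPM-2 cells seeded at 3000 cells/well in 10% FBS medium. IC50 values derived by 4-parameter logistic fitting of serial dilutions.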
On the technique in general: ATP-based viability assays read luminescence as a measure of living cells.

The mark [3] stands for this setting: TR-FRET, 0.1 nM Mcl-1 (171-327), 0.05 nM biotin-Bim (51-76).
The mark [4] stands for this setting: cell free Mcl-1:Bim TR-FRET, recombinant human Mcl-1 (171-327).

T1 sequence (Q07820 171-327): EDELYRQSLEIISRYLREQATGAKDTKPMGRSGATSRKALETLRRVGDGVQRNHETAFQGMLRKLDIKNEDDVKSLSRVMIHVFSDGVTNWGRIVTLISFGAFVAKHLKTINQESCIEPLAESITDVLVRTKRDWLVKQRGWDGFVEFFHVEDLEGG

Consider `CN(C)CCNC(=O)CO[C@@H]1/C=C/CCCS(=O)(=O)NC(=O)c2ccc3c(c2)N(C[C@@H]2CC[C@H]21)C[C@@]1(CCCc2cc(Cl)ccc21)CO3` [Example 212, 2-(((1S,3′R,6′R,7′R,8′E)-6-chloro-13′,13′-dioxido-15′-oxo-3,4-dihydro-2H-spiro[naphthalene-1,22′-[20]oxa[13]thia[1,14]diazatetracyclo[14.7.2.0^3,6.0^19,24]pentacosa [8,16,18,24]tetraen]-7′-yl)oxy)-N-(2-(dimethylamino)ethyl)acetamide], for which the IC50 in test [1] (setting [3]) is 0.00296 µM; in test [2] (Homo sapiens, OPM-2, 16 h) it was 18.2 µM.
Turning to `Cc1nc(CO[C@H]2/C=C/CC[C@@H](C)S(=O)(=O)NC(=O)c3ccc4c(c3)N(C[C@@H]3CC[C@H]32)C[C@@]2(CCCc3cc(Cl)ccc32)CO4)no1` [Example 603, (1S,3′R,6′R,7′S,8′E,12′R)-6-chloro-12′-methyl-7′-((5-methyl-1,2,4-oxadiazol-3-yl)methoxy)-3,4-dihydro-2H,15′H-spiro[naphthalene-1,22′-[20]oxa[13]thia[1,14]diazatetracyclo[14.7.2.0^3,6.0^19,24]pentacosa [8,16,18,24]tetraen]-15′-one 13′,13′-dioxide], the concentration for half-maximal inhibition (IC50) is 0.000667 µM in test [1] (setting [4]) and 0.439 µM in test [2] (Homo sapiens, OPM-2, 16 h).
Regarding `Cn1cnc(CO[C@H]2/C=C/C[C@H]3CC[C@@H]3S(=O)(=O)NC(=O)c3ccc4c(c3)N(C[C@@H]3CC[C@H]32)C[C@@]2(CCCc3cc(Cl)ccc32)CO4)n1` [Example 94, (1S,3′R,6′R,7′S,8′E,11′R,14′S)-6-chloro-7′-((1-methyl-1H-1,2,4-triazol-3-yl)methoxy)-3,4-dihydro-2H,17′H-spiro[naphthalene-1,24′-[22]oxa[15]thia[1,16]diazapentacyclo[16.7.2.0^3,6.0^11,14.0^21,26]heptacosa[8,18,20,26]tetraen]-17′-one 15′,15′-dioxide], the half-maximal inhibitory concentration (IC50) in test [1] (setting [3]) was found to be 0.000467 µM; in test [2] (Homo sapiens, OPM-2, 16 h), 0.431 µM.
`O=C1NS(=O)(=O)[C@H](C2CC2)CC/C=C/[C@H](O)[C@@H]2CC[C@H]2CN2C[C@@]3(CCCc4cc(Cl)ccc43)COc3ccc1cc32` (single isomer, unassigned) [Example 149]: the IC50 in test [1] (setting [3]) was determined as 0.00077 µM; in test [2] it was 1.33 µM.
`CC1CC=CC(O)C2CCC2CN2CC3(CCCc4cc(Cl)ccc43)COc3ccc(cc32)C(=O)NS(=O)(=O)C1Cc1ccccc1` (single isomer, unassigned) [Example 648]: the IC50 in test [1] (setting [4]) turned out to be 0.00145 µM; in test [2] (Homo sapiens, OPM-2, 16 h), 0.154 µM.
As for `CNC(=O)CN1CC/C=C/[C@H](O)[C@@H]2CC[C@H]2CN2C[C@@]3(CCCc4cc(Cl)ccc43)COc3ccc(cc32)C(=O)NS1(=O)=O` [Example 23, 2-((1S,3′R,6′R,7′S,8′E)-6-chloro-7′-hydroxy-13′,13′-dioxido-15′-oxo-3,4-dihydro-2H,12′H-spiro[naphthalene-1,22′-[20]oxa[13]thia[1,12,14]triazatetracyclo[14.7.2.0^3,6.0^19,24]pentacosa[8,16,18,24]tetraen]-12′-yl)-N-methylacetamide], the IC50 in test [1] (setting [3]) amounted to 0.000314 µM; in test [2] (Homo sapiens, OPM-2, 16 h), 3.21 µM.
Turning to `C[C@@H]1C/C=C\[C@H](O)[C@@H]2CC[C@H]2CN2C[C@@]3(CCCc4cc(Cl)ccc43)COc3ccc(cc32)C(=O)NS(=O)(=O)N1C[C@@H]1CCCO1` (single isomer, unassigned) [Example 52], the IC50 is 0.00393 µM in test [1] (setting [3]) and 1.81 µM in test [2] (Homo sapiens, OPM-2, 16 h).
With `CC(C)(O)C[C@@H]1CC/C=C/[C@H](O)[C@@H]2CC[C@H]2CN2C[C@@]3(CCCc4cc(Cl)ccc43)COc3ccc(cc32)C(=O)NS1(=O)=O` (single isomer, unassigned) [Example 559], the IC50 came to 0.000598 µM in test [1] (setting [4]) and 4.42 µM in test [2].
On to `COCCO[C@H]1/C=C/C[C@H](C)CS(=O)(=O)NC(=O)c2ccc3c(c2)N(C[C@@H]2CC[C@H]21)C[C@@]1(CCCc2cc(Cl)ccc21)CO3` (single isomer, unassigned) [Example 376], for which the IC50 came out at 0.000403 µM in test [1] (setting [3]) and 0.223 µM in test [2].
As for `O=C1NS(=O)(=O)CCOC2CCOC(C2)C2CCC2CN2CC3(CCCc4cc(Cl)ccc43)COc3ccc1cc32` (single isomer, unassigned) [Example 878], the IC50 stood at 0.00945 µM in test [1] (setting [4]) and 7 µM in test [2] (Homo sapiens, OPM-2, 16 h).
Turning to `COCCCN1[C@@H](C)C/C=C/[C@H](O)[C@@H]2CC[C@H]2CN2C[C@@]3(CCCc4cc(Cl)ccc43)COc3ccc(cc32)C(=O)NS1(=O)=O` (single isomer, unassigned) [Example 72], the IC50 in test [1] (setting [3]) turned out to be 0.000324 µM; in test [2] (Homo sapiens, OPM-2, 16 h), 0.445 µM.
Consider `Cc1cc(CO[C@H]2/C=C/CC[C@@H](C)S(=O)(=O)NC(=O)c3ccc4c(c3)N(C[C@@H]3CC[C@H]32)C[C@@]2(CCCc3cc(Cl)ccc32)CO4)no1` [Example 411, (1S,3′R,6′R,7′S,8′E,12′R)-6-chloro-12′-methyl-7′-((5-methyl-3-isoxazolyl)methoxy)-3,4-dihydro-2H,15′H-spiro[naphthalene-1,22′-[20]oxa[13]thia[1,14]diazatetracyclo[14.7.2.0^3,6.0^19,24]pentacosa [8,16,18,24]tetraen]-15′-one 13′,13′-dioxide], for which the IC50 in test [1] (setting [3]) was 0.00129 µM; in test [2] (Homo sapiens, OPM-2, 16 h), 2.41 µM.
Take `COCC[C@@H]1[C@@H](C)C/C=C\[C@H](O)[C@@H]2CC[C@H]2CN2C[C@@]3(CCCc4cc(Cl)ccc43)COc3ccc(cc32)C(=O)NS1(=O)=O` (single isomer, unassigned) [Example 394]: the IC50 amounted to 0.00126 µM in test [1] (setting [3]) and 1.25 µM in test [2].
For `COC1C=CCC(OC)C(CC2CCCO2)S(=O)(=O)NC(=O)c2ccc3c(c2)N(CC2CCC21)CC1(CCCc2cc(Cl)ccc21)CO3` (single isomer, unassigned) [Example 642], the IC50 in test [1] (setting [4]) was 0.000539 µM; in test [2], 0.351 µM.
Take `CC[C@@H]1CC/C=C/[C@H](OC)[C@@H]2CC[C@H]2CN2C[C@@]3(CCCc4cc(Cl)ccc43)COc3cc(F)c(cc32)C(=O)NS1(=O)=O` [Example 701, (1S,3′R,6′R,7′S,8′E,12′R)-6-chloro-12′-ethyl-17′-fluoro-7′-methoxy-3,4-dihydro-2H,15′H-spiro[naphthalene-1,22′-[20]oxa[13]thia[1,14]diazatetracyclo[14.7.2.0^3,6.0^19,24]pentacosa [8,16,18,24]tetraen]-15′-one 13′,13′-dioxide]: the IC50 was determined as 0.00144 µM in test [1] (setting [4]) and 2.02 µM in test [2] (Homo sapiens, OPM-2, 16 h).
Turning to `COCCN(C)C(=O)CO[C@H]1/C=C/C[C@H](C)[C@@H](C)S(=O)(=O)NC(=O)c2ccc3c(c2)N(C[C@@H]2CC[C@H]21)C[C@@]1(CCCc2cc(Cl)ccc21)CO3` [Example 299, 2-(((1S,3′R,6′R,7′S,8′E,11′S,12′R)-6-chloro-11′,12′-dimethyl-13′,13′-dioxido-15′-oxo-3,4-dihydro-2H-spiro[naphthalene-1,22′-[20]oxa[13]thia[1,14]diazatetracyclo[14.7.2.0^3,6.0^19,24]pentacosa [8,16,18,24]tetraen]-7′-yl)oxy)-N-(2-methoxyethyl)-N-methylacetamide], the IC50 came out at 0.000275 µM in test [1] (setting [3]) and 0.28 µM in test [2] (Homo sapiens, OPM-2, 16 h).
On to `O=C1NS(=O)(=O)CCCCCC[C@@H](O)[C@@H]2CC[C@H]2CN2C[C@@]3(CCCc4cc(Cl)ccc43)COc3ccc1cc32` [Example 228, (1S,3′R,6′R,7′R)-6-chloro-7′-hydroxy-3,4-dihydro-2H,16′H-spiro[naphthalene-1,23′-[21]oxa[14]thia[1,15]diazatetracyclo[15.7.2.0^3,6.0^20,25]hexacosa[17,19,25]trien]-16′-one 14′,14′-dioxide], for which the IC50 stood at 0.0131 µM in test [1] (setting [3]) and 23.1 µM in test [2] (Homo sapiens, OPM-2, 16 h).
